The experiment addresses T1, ABHD12 (Mus musculus, UniProt Q99LR1).
T1 construct: from tissue; host or cells: mouse brain (membrane fraction)
T1 sequence (Q99LR1 1-398): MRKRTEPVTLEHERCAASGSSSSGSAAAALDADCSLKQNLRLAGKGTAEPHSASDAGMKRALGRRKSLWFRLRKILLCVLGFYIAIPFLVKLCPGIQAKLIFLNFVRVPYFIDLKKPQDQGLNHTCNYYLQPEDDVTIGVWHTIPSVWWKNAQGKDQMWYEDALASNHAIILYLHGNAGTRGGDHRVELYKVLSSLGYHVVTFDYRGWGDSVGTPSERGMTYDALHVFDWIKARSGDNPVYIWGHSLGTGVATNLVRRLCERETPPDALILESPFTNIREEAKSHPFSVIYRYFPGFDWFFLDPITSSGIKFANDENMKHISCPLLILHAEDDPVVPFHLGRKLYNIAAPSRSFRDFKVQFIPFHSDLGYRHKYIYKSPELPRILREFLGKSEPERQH
In words: In vitro competitive activity-based protein profiling (FP-Rhodamine probe, gel-based) in mouse brain membrane proteomes. Particulars: mouse brain membrane proteome, 30 min preincubation at 37° C.; for inhibition at 10 µM: 10 μM inhibitor (stated in cell); for inhibition at 1 µM: 1 μM inhibitor; for inhibition at 50 µM: 50 μM inhibitor (stated in cell). The experiment is classed as biochemical. On the procedure: Compounds were tested to assess their ABHD12 activity using the following assay.
Mouse brain membrane proteomes (50 μL, 1.0 mg/mL total protein concentration) were preincubated with varying concentrations of inhibitors at 37° C. After 30 min, FP-Rhodamine probe (1.0 μL, 50 μM in DMSO) was added and the mixture was incubated for 30 min at room temperature. Reactions were quenched with SDS loading buffer (15 μL-4×) and proteins were resolved by SDS-PAGE gel (10% acrylamide). Following in-gel fluorescence imaging, enzyme activity was determined by measuring intensity of gel bands corresponding to ABHD12 using ImageJ software.

The inhibition is the change of the read-out against control, counted positive when it falls. The term IC50 denotes the concentration needed to halve the response being measured. Read a low IC50 as greater potency in that assay.

Turning to `O=C(Nc1cccnc1)NC1CCN(c2cccc(C(F)(F)F)n2)CC1` [Example 1, 1-(Pyridin-3-yl)-3-(1-(6-(trifluoromethyl)pyridin-2-yl)piperidin-4-yl)urea], the inhibition at 10 µM lay in the range of 50 to 75%. `O=C(Nc1cccnc1)NC1CCN(c2nccc(Oc3ccc(Cl)c(OC(F)(F)F)c3)c2Cl)CC1` [Example 2, 1-(1-(3-Chloro-4-(4-chloro-3-(trifluoromethoxy)phenoxy)pyridin-2-yl)piperidin-4-yl)-3-(pyridin-3-yl)urea] registered an inhibition at 1 µM not below 75% and an IC50 of 0.1 to 1 µM. The compound `CC(=O)c1ccc(N2CCC(NC(=O)Nc3cccnc3)CC2)nc1` [Example 3, 1-(1-(5-Acetylpyridin-2-yl)piperidin-4-yl)-3-(pyridin-3-yl)urea] gave an inhibition at 1 µM of 0 to 25%. The same measure, in the same setting: the same measure for `O=C(Nc1cccnc1)NC1CCN(c2cc(-c3ccc(OC(F)(F)F)cc3)ccn2)CC1` [Example 4, 1-(Pyridin-3-yl)-3-(1-(4-(4-(trifluoromethoxy)phenyl)pyridin-2-yl)piperidin-4-yl)urea]: 25 to 50%; for `O=C(Nc1cccnc1)NC1CCN(c2nccc(Oc3ccc(F)c(OC(F)(F)F)c3)c2Cl)CC1` [Example 5, 1-(1-(3-Chloro-4-(4-fluoro-3-(trifluoromethoxy)phenoxy)pyridin-2-yl)piperidin-4-yl)-3-(pyridin-3-yl)urea]: 25 to 50%. Turning to `C#Cc1ccc(Oc2ccnc(N3CCC(NC(=O)Nc4cccnc4)CC3)c2Cl)c(Cl)c1` [Example 6, 1-(1-(3-Chloro-4-(2-chloro-4-ethynylphenoxy)pyridin-2-yl)piperidin-4-yl)-3-(pyridin-3-yl)urea], the inhibition at 1 µM was not below 75% and the IC50 lay within 0.1 to 1 µM. `O=C(Nc1cccnc1)NC1CCN(c2cc(Oc3ccc(C(F)(F)F)cc3)ccn2)CC1` [Example 7, 1-(Pyridin-3-yl)-3-(1-(4-(4-(trifluoromethyl)phenoxy)pyridin-2-yl)piperidin-4-yl)urea] displayed an inhibition at 1 µM of 25 to 50%.

`O=C(Nc1cccnc1)NC1CCN(c2nccc(C(F)(F)F)c2Cl)CC1` [Example 8, 1-(1-(3-Chloro-4-(trifluoro-methyl)pyridin-2-yl)piperidin-4-yl)-3-(pyridin-3-yl)urea] displayed an inhibition at 10 µM of 50 to 75%. As to `Cc1c(Oc2ccc(OC(F)(F)F)cc2)ccnc1N1CCC(NC(=O)Nc2cccnc2)CC1` [Example 9, 1-(1-(3-Methyl-4-(4-(trifluoro-methoxy)phenoxy)pyridin-2-yl)piperidin-4-yl)-3-(pyridin-3-yl) urea], the inhibition at 1 µM was not below 75% and the IC50 was in the range of 0.1 to 1 µM. On the same counts, the results for `O=C(Nc1cccnc1)NC1CCN(c2nccc(Oc3ccc(OC(F)(F)F)cc3)c2Cl)CC1` [Example 10, 1-(1-(3-Chloro-4-(4-(trifluoro-methoxy)phenoxy)pyridin-2-yl)pipcridin-4-yl)-3-(pyridin-3-yl) urea] are not below 75% and not above 0.1 µM. As to `O=C(Nc1cccnc1)NC1CCN(c2ccc(Cl)cn2)CC1` [Example 11, 1-(1-(5-Chloropyridin-2-yl)piperidin-4-yl)-3-(pyridin-3-yl) urea], the inhibition at 50 µM is not below 75%. On the same count and under the same terms, for `N#Cc1ccnc(N2CCC(NC(=O)Nc3cccnc3)CC2)c1` [Example 12, 1-(1-(4-Cyanopyridin-2-yl)piperidin-4-yl)-3-(pyridin-3-yl) urea] the value was 25 to 50%. Compound `O=C(Nc1cccnc1)NC1CCN(c2nccc(Oc3ccccc3OC(F)(F)F)c2Cl)CC1` [Example 13, 1-(1-(3-Chloro-4-(2-(trifluoro-methoxy)phenoxy)pyridin-2-yl)piperidin-4-yl)-3-(pyridin-3-yl)urea] registered an inhibition at 1 µM of 25 to 50%. Turning to `O=C(Nc1cccnc1)NC1CCN(c2nccc(Oc3ccc(OC(F)(F)F)c(F)c3)c2Cl)CC1` [Example 14, 1-(1-(3-Chloro-4-(3-fluoro-4-(trifluoro-methoxy)phenoxy)pyridin-2-yl)piperidin-4-yl)-3-(pyridin-3-yl)urea], the inhibition at 1 µM was not below 75% and the IC50 was 0.1 to 1 µM. On the same counts, the results for `O=C(Nc1cccnc1)NC1CCN(c2nccc(Oc3ccc(OC(F)(F)F)c(Cl)c3)c2Cl)CC1` [Example 15, 1-(1-(3-Chloro-4-(3-chloro-4-(trifluoro-methoxy)phenoxy)pyridin-2-yl)piperidin-4-yl)-3-(pyridin-3-yl)urea] are not below 75% and 0.1 to 1 µM. On the same counts, the results for `Cc1cc(OC(F)(F)F)ccc1Oc1ccnc(N2CCC(NC(=O)Nc3cccnc3)CC2)c1Cl` [Example 16, 1-(1-(3-Chloro-4-(2-methyl-4-(trifluoro-methoxy)phenoxy)pyridin-2-yl)piperidin-4-yl)-3-(pyridin-3-yl)urea] are not below 75% and 0.1 to 1 µM.

Compound `O=C(Nc1cccnc1)NC1CCN(c2nccc(Oc3cccc(OC(F)(F)F)c3)c2Cl)CC1` [Example 17, 1-(1-(3-Chloro-4-(3-(trifluoro-methoxy)phenoxy)pyridin-2-yl)piperidin-4-yl)-3-(pyridin-3-yl)urea] displayed an inhibition at 1 µM of 50 to 75%. Still for that read-out and setting: the same measure for `COc1ccnc(N2CCC(NC(=O)Nc3cccnc3)CC2)c1` [Example 18]: 0 to 25%.

Regarding `O=C(Nc1cccnc1)NC1CCN(c2cc(OCC3CC3)ccn2)CC1` [Example 19], the inhibition at 50 µM was in the range of 50 to 75%.

With `N#Cc1c(Oc2ccc(C(F)(F)F)cc2)ccnc1N1CCC(NC(=O)Nc2cccnc2)CC1` [Example 20, 1-(1-(3-Cyano-4-(4-(trifluoro-methyl)phenoxy)pyridin-2-yl)piperidin-4-yl)-3-(pyridin-3-yl) urea], the inhibition at 1 µM is 50 to 75%.

`O=C(Nc1cccnc1)NC1CCN(c2nccc(OC3CCOCC3)c2Cl)CC1` [Example 21, 1-(1-(3-Chloro-4-((tetrahydro-2H-pyran-4-yl)oxy)pyridin-2-yl)piperidin-4-yl)-3-(pyridin-3-yl)urea] came in with an inhibition at 1 µM of 0 to 25%. Compound `CC(C)OC(=O)N1CCC(Oc2ccnc(N3CCC(NC(=O)Nc4cccnc4)CC3)c2)CC1` [Example 22, Isopropyl 4-((2-(4-(3-(pyridin-3-yl)ureido)piperidin-1-yl)pyridin-4-yl)oxy) piperidine-1-carboxylate] showed an inhibition at 50 µM of 25 to 50%. With `O=C(Nc1cccnc1)NC1CCN(c2ncccc2Oc2ccc(OC(F)(F)F)cc2Cl)CC1` [Example 23, 1-(1-(3-(2-Chloro-4-(trifluoro-methoxy)phenoxy)pyridin-2-yl)piperidin-4-yl)-3-(pyridin-3-yl) urea], the inhibition at 1 µM was not below 75% and the concentration for half-maximal inhibition (IC50) was in the range of 0.1 to 1 µM. For the compound `O=C(Nc1cccnc1)NC1CCN(c2nc(Oc3ccc(OC(F)(F)F)cc3Cl)ccc2Cl)CC1` [Example 24, 1-(1-(3-Chloro-6-(2-chloro-4-(trifluoro-methoxy)phenoxy)pyridin-2-yl)piperidin-4-yl)-3-(pyridin-3-yl)urea], the inhibition at 1 µM lay in the range of 25 to 50%. Same read-out and setting: the same measure for `C#Cc1ccc(N2CCC(NC(=O)Nc3cccnc3)CC2)nc1` [Example 25, 1-(1-(5-Ethynyl-pyridin-2-yl)piperidin-4-yl)-3-(pyridin-3-yl)urea]: 0 to 25%. With `O=C(Nc1cccnc1)NC1CCN(c2nccc(-c3cccc(OC(F)(F)F)c3)c2Cl)CC1` [Example 26, 1-(1-(3-Chloro-4-(3-(trifluoro-methoxy)phenyl)pyridin-2-yl)piperidin-4-yl)-3-(pyridin-3-yl)urea], the inhibition at 1 µM is not below 75% and the IC50 lay in the range of 0.1 to 1 µM. On the same counts, the results for `O=C(Nc1cccnc1)NC1CCN(c2nccc(-c3ccc(OC(F)(F)F)cc3)c2Cl)CC1` [Example 27, 1-(1-(3-Chloro-4-(4-(trifluoro-methoxy)phenyl)pyridin-2-yl)piperidin-4-yl)-3-(pyridin-3-yl)urea] are not below 75% and 0.1 to 1 µM. `O=C(Nc1cccnc1)NC1CCN(c2nccc(OCc3ccc(OC(F)(F)F)cc3)c2Cl)CC1` [Example 28, 1-(1-(3-Chloro-4-((4-(trifluoro-methoxy)benzyl)oxy)pyridin-2-yl)piperidin-4-yl)-3-(pyridin-3-yl)urea] had an inhibition at 1 µM of 25 to 50%. Still for that read-out and setting: the same measure for `O=C(Nc1cccnc1)NC1CCN(c2nccc(OCc3cccc(OC(F)(F)F)c3)c2Cl)CC1` [Example 29, 1-(1-(3-Chloro-4-((3-(trifluoro-methoxy)benzyl)oxy)pyridin-2-yl)piperidin-4-yl)-3-(pyridin-3-yl)urea]: 25 to 50%.

Values taken from patent US20220213074A1, “ABHD12 INHIBITORS AND METHODS OF MAKING AND USING SAME” (H. Lundbeck A/S, priority 2019, published 2022).
